For this data set, the system named is tobacco transformed with CYP76B1. The experiment in a line: Leaf pieces of tobacco transformed with CYP76B1 aged on herbicide medium. The class given is cell-based. The following applies: 10 days on MS medium containing 0.5 μM linuron; versus empty plasmid. The method, then:
FIG. 15 : Leaf pieces from tobacco transformed with CYP76B1 (left) or with an empty plasmid (right) were aged for 10 days on Murashige and Skoog (MS) medium containing 0.5 μM linuron.
The CYP76B1 cDNA was inserted in vector pBDX (Gachotte D., 1995). The resulting vector was mobilized into Agrobacterium tumefaciens strain LBA4404 by triparental mating (Ditta G. et al., 1980). Plant transformation was realized according to Horsch et al. (1985): tobacco leaf disks were soaked for 10 minutes in an Agrobacterium solution, blotted dry and placed on MS callus-inducing medium containing 500 μg/ml cefotaxime and 100 μg/ml kanamycin. After four to six weeks, shoots were transferred on MS-rooting medium containing 100 μg/ml cefotaxime and 100 μg/ml kanamycin. After rooting, plants were transferred in soil.

Consider `CON(C)C(=O)Nc1ccc(Cl)c(Cl)c1` [linuron], for which the “chlorophyll destruction in leaf pieces” value is listed as “avoids chrorophyll destruction”.

The values above are taken from patent publication US6376753B1, “PURIFIED CYTOCHROME P450 POLYPEPTIDE CYP76B1 FROM HELIANTHUS TUBEROSUS AND ITS APPLICATIONS AS BIOCATALYST IN PARTICULAR FOR THE DEGRADATION OF ENVIRONMENTAL POLLUTANTS AND FOR ALTERING THE RESISTANCE OF PLANTS SENSITIVE TO PHENYLUREA FAMILY OF HERBICIDES” (priority 1997, dated 2002).
